This is an account of results in ChEMBL document CHEMBL1772970, “Potent bivalent Smac mimetics: effect of the linker on binding to inhibitor of apoptosis proteins (IAPs) and anticancer activity” (J Med Chem, 2011).

Data set [1] concerns Mus musculus. In words: Toxicity in SCID mouse xenografted with human MDA-MB-231 cells assessed as weight loss at […], iv administered on day 2 and 9. Also on record: dose 7.5 mg/kg, route intravenous. The settings on record: in vivo. Type of data set: organism-based.
Data set [2] has as its system MDA-MB-231. In words: Induction of apoptosis in human MDA-MB-231 cells assessed as caspase-3 processing at 30 nM after 24 hrs by Western blotting. Type of data set: functional, cell-based.
For data set [3], the system named is MDA-MB-231. In words: Drug uptake in human MDA-MB-231 cells assessed as intracellular concentration at 300 nM after 3 hrs by LC-MS/MS. Type of data set: ADME, cell-based. The settings on record: mda-mb-231, 3 h, 0.3 µM.
Data set [4] concerns MDA-MB-231. In words: Drug uptake in human MDA-MB-231 cells assessed as intracellular concentration at 300 nM after 1 min by LC-MS/MS. Type of data set: ADME, cell-based. The settings on record: mda-mb-231, 1 min, 0.3 µM.
Data set [5] deals with MDA-MB-231. In words: Induction of apoptosis in human MDA-MB-231 cells assessed as PARP cleavage at 30 nM after 24 hrs by Western blotting. Type of data set: functional, cell-based.
Data set [6] concerns MDA-MB-231. In words: Induction of apoptosis in human MDA-MB-231 cells assessed as cIAP2 degradation at 30 nM after 24 hrs by Western blotting. Type of data set: functional, cell-based.
In data set [7] the test system is MDA-MB-231. In words: Induction of apoptosis in human MDA-MB-231 cells assessed as cIAP2 degradation at 1 nM after 24 hrs by Western blotting. Type of data set: functional, cell-based.
The test system of data set [8] is MDA-MB-231. In words: Induction of apoptosis in human MDA-MB-231 cells assessed as PARP cleavage at 3 nM after 24 hrs by Western blotting. Type of data set: functional, cell-based.
The subject of data set [9] is MDA-MB-231. In words: Induction of apoptosis in human MDA-MB-231 cells assessed as cIAP1 degradation at 1 nM after 24 hrs by Western blotting. Type of data set: functional, cell-based.
For data set [10], the system named is MDA-MB-231. In words: Induction of apoptosis in human MDA-MB-231 cells assessed as caspase-3 processing at 3 nM after 24 hrs by Western blotting. Type of data set: functional, cell-based.
In data set [11] the test system is MDA-MB-231. In words: Induction of apoptosis in human MDA-MB-231 cells assessed as caspase-3 processing at 10 nM after 24 hrs by Western blotting. Type of data set: functional, cell-based.
The subject of data set [12] is MDA-MB-231. In words: Induction of apoptosis in human MDA-MB-231 cells assessed as cIAP1 degradation at 10 nM after 24 hrs by Western blotting. Type of data set: functional, cell-based.
In data set [13] the test system is MDA-MB-231. In words: Induction of apoptosis in human MDA-MB-231 cells assessed as cIAP2 degradation at 10 nM after 24 hrs by Western blotting. Type of data set: functional, cell-based.
In data set [14] the test system is MDA-MB-231. In words: cells. The settings on record: Homo sapiens.
Data set [15] deals with T1, E3 ubiquitin-protein ligase XIAP (Homo sapiens, UniProt P98170). In words: Competitive inhibition of human XIAP linker BIR2-BIR3 domain expressed in Escherichia coli BL21(DE3) cells by fluorescence polarization-based assay.
Data set [16] addresses T1, E3 ubiquitin-protein ligase XIAP. In words: Competitive inhibition of His-tagged human XIAP BIR3 domain expressed in Escherichia coli BL21(DE3) after 2 to 3 hrs by fluorescence polarization assay.
For data set [17] the target is unchanged. In words: biochemical.
Data set [18] has the same target.
Data set [19] concerns the target T2, Baculoviral IAP repeat-containing protein 2 (Homo sapiens, UniProt Q13490). In words: Binding affinity to human cIAP1 BIR2-BIR3 domain after 2 to 3 hrs by fluorescence polarization-based assay.
Data set [20] concerns the target T2, Baculoviral IAP repeat-containing protein 2. In words: Competitive inhibition of human cIAP1BIR2-BIR3 domain after 2 to 3 hrs by fluorescence polarization assay.
The target is the same in data set [21]. In words: Competitive inhibition of human cIAP1 BIR3 domain after 2 to 3 hrs by fluorescence polarization assay.
The target is the same in data set [22]. In words: Binding affinity to human cIAP1 BIR3 domain after 2 to 3 hrs by fluorescence polarization-based assay.
Data set [23] deals with MDA-MB-231. In words: Antitumor activity against human MDA-MB-231 cells xenografted in SCID mouse assessed as inhibition tumor growth intravenously administered on day 1 to 5 and 8 to 12 post tumor implantation. Type of data set: functional, cell-based.
Data set [24] deals with MDA-MB-231. The settings on record: Homo sapiens, 5 mg/kg.
In data set [25] the test system is Mus musculus. In words: Toxicity in SCID mouse xenografted with human MDA-MB-231 cells assessed as weight loss at 5 mg/kg, iv administered on day 1 to 5 and 8 to 12 post tumor implantation. Type of data set: organism-based. The settings on record: in vivo. More on the design: dose 5 mg/kg, route intravenous.
For data set [26], the system named is MDA-MB-231. In words: Antitumor activity against human MDA-MB-231 cells xenografted in SCID mouse assessed as tumor size at 5 mg/kg, iv administered on day 1 to 5 and 8 to 12 post tumor implantation measured on day 50 (reference value: 1136 mm'3). Type of data set: functional.

Calls of active or inactive are those of the source. The calls are words filed in the database; no cut-off is given here.

As to `CC(=O)O[C@@]12CO[C@@H]1C[C@H](O)[C@@]1(C)C(=O)[C@H](O)C3=C(C)[C@@H](OC(=O)[C@H](O)[C@@H](NC(=O)OC(C)(C)C)c4ccccc4)C[C@@](O)([C@@H](OC(=O)c4ccccc4)[C@H]21)C3(C)C.O.O.O` [DOCETAXEL], the Activity result in the data set with Mus musculus [1] is recorded as “Toxic”.

Turning to `CN[C@@H](C)C(=O)N[C@H]1CCCC[C@H]2CC[C@@H](C(=O)N[C@@H](c3ccccc3)c3cn(Cc4ccc(Cn5cc([C@@H](NC(=O)[C@@H]6CC[C@@H]7CCCC[C@H](NC(=O)[C@H](C)NC)C(=O)N76)c6ccccc6)nn5)cc4)nn3)N2C1=O`, the outcome in the data set on MDA-MB-231 [2] and in the data set with MDA-MB-231 [5] was inactive. Besides, the Drug uptake in the data set with MDA-MB-231 [3] is 75.2 nM; in the data set with MDA-MB-231 [4] it was 21.2 nM.

`CN[C@@H](C)C(=O)N[C@H]1CCCC[C@H]2CC[C@@H](C(=O)N[C@@H](c3ccccc3)c3cn(CCOCCOCCOCCn4cc([C@@H](NC(=O)[C@@H]5CC[C@@H]6CCCC[C@H](NC(=O)[C@H](C)NC)C(=O)N65)c5ccccc5)nn4)nn3)N2C1=O`: the Drug uptake is on record as 7.3 nM in the data set with MDA-MB-231 [3] and 6.7 nM in the data set on MDA-MB-231 [4].

Take `CN[C@@H](C)C(=O)N[C@H]1CCCC[C@H]2CC[C@@H](C(=O)N[C@@H](c3ccccc3)c3cn(CCc4ccc(CCn5cc([C@@H](NC(=O)[C@@H]6CC[C@@H]7CCCC[C@H](NC(=O)[C@H](C)NC)C(=O)N76)c6ccccc6)nn5)cc4)nn3)N2C1=O`: the result in the data set on MDA-MB-231 [2] and in the data set on MDA-MB-231 [5] was inactive. In addition, in the data set on MDA-MB-231 [3], the Drug uptake was 67.7 nM. In the data set with MDA-MB-231 [6], the outcome was Active.

In the case of `CN[C@@H](C)C(=O)N[C@H]1CCCC[C@H]2CC[C@@H](C(=O)N[C@@H](c3ccccc3)c3cn(CCCCCCc4ccc(CCCCCCn5cc([C@@H](NC(=O)[C@@H]6CC[C@@H]7CCCC[C@H](NC(=O)[C@H](C)NC)C(=O)N76)c6ccccc6)nn5)cc4)nn3)N2C1=O`, the result in the data set on MDA-MB-231 [7], in the data set on MDA-MB-231 [8], with MDA-MB-231 [9] and in the data set with MDA-MB-231 [10] was Active.

Regarding `CN[C@@H](C)C(=O)N[C@H]1CCCC[C@H]2CC[C@@H](C(=O)N[C@@H](c3ccccc3)c3cn(CCCc4ccc(CCCn5cc([C@@H](NC(=O)[C@@H]6CC[C@@H]7CCCC[C@H](NC(=O)[C@H](C)NC)C(=O)N76)c6ccccc6)nn5)cc4)nn3)N2C1=O`, the outcome in the data set with MDA-MB-231 [8], in the data set on MDA-MB-231 [11], in the data set on MDA-MB-231 [12] and with MDA-MB-231 [13] was Active.

For `CC(=O)N[C@@H](Cc1c[nH]c2ccccc12)C(=O)N[C@H]1CCCC[C@H]2CC[C@@H](C(=O)N[C@@H](c3ccccc3)c3cn(CCCCc4ccc(CCCCn5cc([C@@H](NC(=O)[C@@H]6CC[C@@H]7CCCC[C@H](NC(=O)[C@H](Cc8c[nH]c9ccccc89)NC(C)=O)C(=O)N76)c6ccccc6)nn5)cc4)nn3)N2C1=O`, the IC50 was > 100000 nM with MDA-MB-231 [14], > 50000 nM in data set [15] and > 50000 nM in [16]. Besides, the Ki in [17] and in [18] was > 10000 nM each time.

Regarding `CN[C@@H](C)C(=O)N[C@H]1CCCC[C@H]2CC[C@@H](C(=O)N[C@@H](c3ccccc3)c3cn(CCCCc4ccc(CCCCn5cc([C@@H](NC(=O)[C@@H]6CC[C@@H]7CCCC[C@H](NC(=O)[C@H](C)NC)C(=O)N76)c6ccccc6)nn5)cc4)nn3)N2C1=O`, the outcome in the data set on MDA-MB-231 [7], in the data set on MDA-MB-231 [8], with MDA-MB-231 [9] and in the data set on MDA-MB-231 [10] was Active. For the same molecule, the IC50 is 3.3 nM with MDA-MB-231 [14], 5.7 nM in data set [20] and 4.6 nM in [21]. The Ki was 1.5 nM in [19] and < 1 nM in data set [22]. Moreover, the results for the Drug uptake in the data set with MDA-MB-231 [3] and with MDA-MB-231 [4] were 541 nM and 106 nM, respectively.

Turning to `CN[C@@H](C)C(=O)N[C@H]1CCCC[C@H]2CC[C@@H](C(=O)N[C@@H](c3ccccc3)c3cn(CCCCCOCCCCCn4cc([C@@H](NC(=O)[C@@H]5CC[C@@H]6CCCC[C@H](NC(=O)[C@H](C)NC)C(=O)N65)c5ccccc5)nn4)nn3)N2C1=O`, the figures for the Activity entry in the data set with MDA-MB-231 [23], in the data set on Mus musculus [25] and with MDA-MB-231 [26] were “Dose-dependent effect”, “Toxic” and 269 mm3, respectively. Besides, the inhibition entry in the data set on MDA-MB-231 [24] is “Active”.
